The test has as its target T1, PDE8 (PDE8A) (Homo sapiens, UniProt O60658).
T1 construct: His tag (hexahistidine, pcDNA4/HisMax) (N); made in house
The test is described as follows: PDE assay, recombinant human PDE8A. In kind it is biochemical. The note with it: substrate about 4.8 nM [3H]-cAMP and 0.1 μM cAMP. From the text: Based on the information of cDNA sequence of human PDE7A (Genbank/EMBL Accession No. NM002603), a cDNA encoding human PDE7A was cloned by PCR method, according to a method described in Sasaki et al. (Sasaki et al., Biochem. Biophys. Res. Commun., vol. 271, pp. 575-583, 2000). Further, based on the information of cDNA sequence of human PDE8A (Genbank/EMBL Accession No. AF388183), a cDNA encoding human PDE8A was cloned by PCR method, according to a method described in Gamanuma et al. (Gamanuma et al., Cell Signal, 2003, vol. 15, pp. 565-574). Further, a cDNA encoding human PDE11A was obtained, according to a method reported in Yuasa et al. (Yuasa et al., J. Biol. Chem., vol. 275, pp. 31469-31479, 2000). Using these cDNAs, recombinant proteins of human PDE7A, human PDE8A, and human PDE11A were prepared as follows.
DNA fragments comprising a cDNA encoding human PDE7A, human PDE8A or human PDE11A were linked to pcDNA4/HisMax (available from Invitrogen), to give a vector plasmid for expression of human proteins, with a histidine tag peptide (hexahistidine), added to the N-terminus. COS-7 cells were transfected with these vector plasmids, and the cells were cultured in Dulbecco's modified Eagle medium containing 10% bovine fetal serum for about 24 hours. […]

T1 sequence (O60658 whole entry): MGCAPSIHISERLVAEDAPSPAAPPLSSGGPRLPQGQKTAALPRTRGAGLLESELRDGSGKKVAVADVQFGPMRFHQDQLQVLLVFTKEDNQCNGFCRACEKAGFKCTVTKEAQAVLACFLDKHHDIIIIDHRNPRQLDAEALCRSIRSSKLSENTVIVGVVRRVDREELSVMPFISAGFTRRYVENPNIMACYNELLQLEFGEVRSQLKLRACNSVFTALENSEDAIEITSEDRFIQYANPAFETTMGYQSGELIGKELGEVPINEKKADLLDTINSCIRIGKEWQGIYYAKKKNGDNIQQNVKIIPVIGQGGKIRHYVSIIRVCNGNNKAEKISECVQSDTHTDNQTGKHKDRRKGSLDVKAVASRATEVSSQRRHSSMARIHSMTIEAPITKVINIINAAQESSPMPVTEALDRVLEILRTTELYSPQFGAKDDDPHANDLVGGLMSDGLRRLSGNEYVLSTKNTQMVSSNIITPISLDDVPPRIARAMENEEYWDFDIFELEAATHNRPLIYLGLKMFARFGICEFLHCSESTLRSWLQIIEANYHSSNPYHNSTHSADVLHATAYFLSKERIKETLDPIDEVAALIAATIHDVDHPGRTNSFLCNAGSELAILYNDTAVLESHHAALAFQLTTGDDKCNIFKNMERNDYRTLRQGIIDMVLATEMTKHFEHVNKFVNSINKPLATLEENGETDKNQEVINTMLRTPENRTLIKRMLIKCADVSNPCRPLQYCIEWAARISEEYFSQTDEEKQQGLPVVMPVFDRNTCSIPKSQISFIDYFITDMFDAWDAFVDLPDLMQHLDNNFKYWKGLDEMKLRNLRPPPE

By IC50 is commonly meant the concentration that inhibits the measured activity by half. For `COc1ccc(-c2cc(N3CCCC3)nc(/C=C/c3nc(-n4ccnc4)c4ccccc4n3)n2)cc1OC` [Compound A, 2-{(E)-2-[4-(1-imidazolyl)-quinazolin-2-yl]}ethenyl-4-(3,4-dimethoxy)phenyl-6-(pyrrolidin-1-yl)pyrimidine], the 50% inhibitory concentration (IC50) is > 1 µM.

(Values after patent publication US8338420B1, “Treatment of Parkinson's disease and enhancement of dopamine signal using PDE 10 inhibitor” (Mitsubishi Tanabe Pharma Corporation, priority 2002, dated 2012).)
